In patent US8686021B2, “Use of a benzoyl derivative of 3-aminocarbazole for the treatment of a disorder associated with the production of prostaglandin E2 (PGE2)” (Aziende Chimiche Riunite Angelini Francesco A.C.R.A.F. …, priority 2005, dated 2014):

Tests used:
production of PGE2 = test: In-vitro activity test: inhibition of PGE2 production in IL-1β-stimulated A549 cells; format: cell-based, human; conditions: 18 hours
Text: (§1) This test is used to evaluate capability to inhibit the production of PGE2 and selectivity with respect to the production of PGF2, for each of the compounds under examination.
(§2) Cell line A549, human lung adenocarcinoma, which is particularly sensitive to stimulation with proinflammatory cytokines such as IL-1β, and, in response to that stimulation, particularly active in the production and release of two prostanoids: PGE2 and PGF2α (Thoren S., Jakobsson P. J. “Coordinate up- and down-regulation of glutathione-dependent prostaglandin E synthase and cyclooxygenase-2 in A549 cells. Inhibition by NS-398 and leukotriene C4”, Eur. J. Biochem. 2000, 267(21):6428-6434)) was used.
(§3) The cells were stimulated with IL-1β (1 ng/ml) and at the same time treated with the compounds under test for 18 hours in an appropriate culture medium (DMEM—Dulbecco's Modified Eagles Medium) enriched with 5% bovine foetal serum and L-glutamine (4 mM final) in an incubator at 37° C. and with a CO2 concentration of 5%.
(§4) After incubation the quantities of PGE2 and PGF2α produced and released into the supernatant were determined using an EIA kit (manufactured and marketed by Cayman Chemicals, Ann Arbor, Mich., USA).
(§5) The results, shown in Table 3, are expressed as percentage inhibition of the production of PGE2 and PGF2α at a concentration of […].

production of PGF2α = test: In-vitro activity test: inhibition of PGF2α production in IL-1β-stimulated A549 cells; format: cell-based, human; conditions: 18 hours
Text: as §1, §2, §3, §4, §5

[1] = test system: pained behaviour induced by acetic acid in mice; test: In-vivo activity test: acetic acid-induced stretching (nociceptive test of inflammatory origin) in mice; conditions: female CD-1 mice; 30 mg/kg orally in methyl cellulose (MTC), 1 hour before acetic acid i.p.; mean±SD; vehicle MTC 58 ± 5
Protocol: This test makes it possible to evaluate the activity of the compounds according to this invention in a nociceptive test of inflammatory origin. Compound 1 was used for this purpose in an experimental model which provokes pained behaviour induced by acetic acid in mice (Stock, J. L. et al., J. Clin. Inv. 2001, 107:325-331). Female CD-1 mice weighing 25-30 g were used for the test.
The animals were treated orally with compound 1 (30 mg/kg) suspended in methyl cellulose (MTC). The control animals were treated with the vehicle (MTC) alone, orally.
One hour after treatment acetic acid (0.7% v/v in physiological solution, 16 μl/g of body weight) was injected into the animals intraperitoneally to induce inflammatory pain and check the effects of the treatment on the nociceptive response.
The number of stretches, which represents the evaluation parameter for the nociceptive response, was measured immediately after the administration of acetic acid and for the next 20 minutes.

production of PGI2 = test: Test on human primary endothelial cells (HUVEC): secretion of PGI2; format: cell-based
Protocol: This test is used to evaluate the ability of the compounds in Table 2 to inhibit the production of PGI2.
The absence of inhibitory activity on these prostanoids may ensure that the vasoprotective action of PGI2 is maintained and provides useful pharmacological information about the absence of adverse effects on the endothelium.
Compound 1 was used in the test.
The action of the compound under test was evaluated in HUVEC cells under basal and stimulation conditions (J. Immunol. 1989 Jun. 1; 142(11):3993-9).
The results are shown in Table 6 and are expressed as percentage inhibition in comparison with control enzyme activity.
Indomethacin was used as the reference compound.

[2] = 10 μM, A549 cells stimulated with IL-1β (1 ng/ml), EIA kit
[3] = A549 cells stimulated with IL-1β
[4] = Homo sapiens, 10 μM, A549 cells stimulated with IL-1β (1 ng/ml), EIA kit

pIC50 PGE2 (production of PGE2; [3])	pIC50 PGF2α (production of PGF2α; [3])	SMILES	% inhibition at 10 μM PGE2 (production of PGE2; [2]) [%]	% inhibition at 10 μM PGF2α (production of PGF2α; [2]) [%]	also measured
–	–	CCn1c2ccccc2c2cc(NC(=O)c3ccc(C)cc3)ccc21 [C, reference compound]	43	49	–
–	–	CCn1c2ccccc2c2cc(NC(=O)c3ccccc3)ccc21 [B, reference compound]	46	40	–
–	–	CCn1c2ccccc2c2cc(NC(=O)c3ccccc3OC)ccc21 [A, reference compound]	98	95	–
5.5	<4	CCn1c2ccccc2c2cc(NC(=O)c3ccccc3Br)ccc21 [Compound 3]	81	0	–
–	–	CCn1c2ccccc2c2cc(NC(=O)c3ccccc3[N+](=O)[O-])ccc21 [Compound 5]	27	0	–
–	–	CCn1c2ccccc2c2cc(NC(=O)c3cc([N+](=O)[O-])ccc3Cl)ccc21 [Compound 7]	70	0	–
5.7	4.1	CCn1c2ccccc2c2cc(NC(=O)c3ccccc3Cl)ccc21 [Compound 1]	82	16	No. stretches in 20 min [1]: 40 ± 5; % inhibition, test for the secretion of PGI2, Basal (HUVEC) (production of PGI2; 10 μM, basal conditions): 0%; % inhibition, test for the secretion of PGI2, Stimulated (HUVEC) (production of PGI2; 10 μM, stimulation conditions): 0%
–	–	CCn1c2ccccc2c2cc(NC(=O)c3c(Cl)cccc3Cl)ccc21 [Compound 6]	89	51	–
5.3	4.3	CCn1c2ccccc2c2cc(NC(=O)c3ccccc3C)ccc21 [Compound 2]	83	44	–
–	–	CCn1c2ccccc2c2cc(NC(=O)c3cc(Cl)ccc3Cl)ccc21 [Compound 8]	93	37	–
–	–	COc1ccc2c(c1)c(CC(=O)O)c(C)n2C(=O)c1ccc(Cl)cc1 [Indomethacin, reference compound]	–	–	inhibition at 10 µM (production of PGE2; [4]): 100%; IC50 (production of PGE2; Homo sapiens, A549 cells stimulated with IL-1β, read-out: pIC50 PGE2 (converted)): 5.01 nM; inhibition at 10 µM (production of PGF2α; [4]): 100%; IC50 (production of PGF2α; Homo sapiens, A549 cells stimulated with IL-1β, read-out: pIC50 PGF2α (converted)): 2.51 nM; inhibition at 10 µM (production of PGI2; Homo sapiens, stimulation conditions, read-out: % inhibition, test for the secretion of PGI2, Stimulated (HUVEC)): 100%
5.4	<4	CCn1c2ccccc2c2cc(NC(=O)c3ccccc3I)ccc21 [Compound 4]	84	0	–
